Measurements taken from the kinase profiling compilation of Christmann-Franck et al. (2016).

How the values were obtained:
HIPK1 (human) [1] = target: HIPK1 (human) (UniProt Q86Z02); assay: SelectScreen, TR FRET
HIPK2 (human) = HIPK2 (human) (UniProt Q9H2X6); assay: SelectScreen, TR FRET
DCLK1 (human) = DCLK1 (human) (UniProt O15075); assay: KINOMEscan competition binding; details: compound 10.0 µM
PLK1 (human) = PLK1 (human) (UniProt P53350); assay: KINOMEscan competition binding; details: compound 10.0 µM
CAMK2G (human) = CAMK2G (human) (UniProt Q13555); assay: KINOMEscan competition binding; details: compound 10.0 µM
MYLK (human) = MYLK (human) (UniProt Q15746); assay: KINOMEscan competition binding; details: compound 10.0 µM
MKNK2 (human) = MKNK2 (human) (UniProt Q9HBH9); assay: KINOMEscan competition binding; details: compound 10.0 µM
CAMK2A (human) = CAMK2A (human) (UniProt Q9UQM7); assay: KINOMEscan competition binding; details: compound 10.0 µM
CAMK2D (human) = CAMK2D (human) (UniProt Q13557); assay: KINOMEscan competition binding; details: compound 10.0 µM
STK33 (human) = STK33 (human) (UniProt Q9BYT3); assay: KINOMEscan competition binding; details: compound 10.0 µM
DCLK2 (human) = DCLK2 (human) (UniProt Q8N568); assay: KINOMEscan competition binding; details: compound 10.0 µM
PTK2B (human) = PTK2B (human) (UniProt Q14289); assay: KINOMEscan competition binding; details: compound 10.0 µM
CAMKK2 (human) = CAMKK2 (human) (UniProt Q96RR4); assay: KINOMEscan competition binding; details: compound 10.0 µM
[2] = tested on: PIK3CA (human), P42336 [E545K]; assay: KINOMEscan competition binding; details: compound 10.0 µM
PLK4 (human) = PLK4 (human) (UniProt O00444); assay: KINOMEscan competition binding; details: compound 10.0 µM
FLT3 (human) = FLT3 (human) (UniProt P36888); assay: KINOMEscan competition binding; details: compound 10.0 µM
KIT (human) = KIT (human) (UniProt P10721); assay: KINOMEscan competition binding; details: compound 10.0 µM
RPS6KA2 KD2 (human) = RPS6KA2 KD2 (human) (UniProt Q15349); assay: KINOMEscan competition binding; details: compound 10.0 µM
[3] = tested on: KIT (human), P10721 [V559D]; assay: KINOMEscan competition binding; details: compound 10.0 µM
[4] = tested on: FLT3 (human), P36888 [K663Q]; assay: KINOMEscan competition binding; details: compound 10.0 µM
GAK (human) = GAK (human) (UniProt O14976); assay: KINOMEscan competition binding; details: compound 10.0 µM
CLK2 (human) = CLK2 (human) (UniProt P49760); assay: KINOMEscan competition binding; details: compound 10.0 µM
PDGFRB (human) = PDGFRB (human) (UniProt P09619); assay: KINOMEscan competition binding; details: compound 10.0 µM
TTK (human) [5] = target: TTK (human) (UniProt P33981); assay: KINOMEscan competition binding
TTK (human) [6] = target: TTK (human) (UniProt P33981); assay: SelectScreen, TR FRET
STK17B (human) = STK17B (human) (UniProt O94768); assay: KINOMEscan competition binding; details: compound 10.0 µM
PIM2 (human) [7] = target: PIM2 (human) (UniProt Q9P1W9); assay: KINOMEscan competition binding; details: compound 10.0 µM
MINK1 (human) = MINK1 (human) (UniProt Q8N4C8); assay: KINOMEscan competition binding; details: compound 10.0 µM
STK17A (human) = STK17A (human) (UniProt Q9UEE5); assay: KINOMEscan competition binding; details: compound 10.0 µM
MAPK15 (human) = MAPK15 (human) (UniProt Q8TD08); assay: KINOMEscan competition binding; details: compound 10.0 µM
CDK7 (human) = CDK7 (human) (UniProt P50613); assay: KINOMEscan competition binding; details: compound 10.0 µM
TGFBR2 (human) = TGFBR2 (human) (UniProt P37173); assay: KINOMEscan competition binding; details: compound 10.0 µM
HIPK1 (human) [8] = target: HIPK1 (human) (UniProt Q86Z02); assay: KINOMEscan competition binding; details: compound 10.0 µM
PIM3 (human) = PIM3 (human) (UniProt Q86V86); assay: KINOMEscan competition binding; details: compound 10.0 µM
RPS6KA4 KD2 (human) = RPS6KA4 KD2 (human) (UniProt O75676); assay: KINOMEscan competition binding; details: compound 10.0 µM
PIM1 (human) [9] = target: PIM1 (human) (UniProt P11309); assay: KINOMEscan competition binding; details: compound 10.0 µM
PIK3CG (human) = PIK3CG (human) (UniProt P48736); assay: KINOMEscan competition binding; details: compound 10.0 µM
CSNK2A2 (human) = CSNK2A2 (human) (UniProt P19784); assay: KINOMEscan competition binding; details: compound 10.0 µM
PIM2 (human) [10] = target: PIM2 (human) (UniProt Q9P1W9); assay: SelectScreen, TR FRET
PIM1 (human) [11] = target: PIM1 (human) (UniProt P11309); assay: SelectScreen, TR FRET
TAOK1 (human) = TAOK1 (human) (UniProt Q7L7X3); assay: KINOMEscan competition binding; details: compound 10.0 µM
TAOK3 (human) = TAOK3 (human) (UniProt Q9H2K8); assay: KINOMEscan competition binding; details: compound 10.0 µM
CSNK2A1 (human) = CSNK2A1 (human) (UniProt P68400); assay: KINOMEscan competition binding; details: compound 10.0 µM
DAPK2 (human) = DAPK2 (human) (UniProt Q9UIK4); assay: KINOMEscan competition binding; details: compound 10.0 µM
DYRK1B (human) = DYRK1B (human) (UniProt Q9Y463); assay: KINOMEscan competition binding; details: compound 10.0 µM
CLK4 (human) = CLK4 (human) (UniProt Q9HAZ1); assay: KINOMEscan competition binding; details: compound 10.0 µM
CLK1 (human) = CLK1 (human) (UniProt P49759); assay: KINOMEscan competition binding; details: compound 10.0 µM
CAMKK1 (human) = CAMKK1 (human) (UniProt Q8N5S9); assay: KINOMEscan competition binding; details: compound 10.0 µM
MAP2K3 (human) = MAP2K3 (human) (UniProt P46734); assay: KINOMEscan competition binding; details: compound 10.0 µM
MAP2K4 (human) = MAP2K4 (human) (UniProt P45985); assay: KINOMEscan competition binding; details: compound 10.0 µM

Sequence of PIM2 (human) (Q9P1W9 whole entry, looked up): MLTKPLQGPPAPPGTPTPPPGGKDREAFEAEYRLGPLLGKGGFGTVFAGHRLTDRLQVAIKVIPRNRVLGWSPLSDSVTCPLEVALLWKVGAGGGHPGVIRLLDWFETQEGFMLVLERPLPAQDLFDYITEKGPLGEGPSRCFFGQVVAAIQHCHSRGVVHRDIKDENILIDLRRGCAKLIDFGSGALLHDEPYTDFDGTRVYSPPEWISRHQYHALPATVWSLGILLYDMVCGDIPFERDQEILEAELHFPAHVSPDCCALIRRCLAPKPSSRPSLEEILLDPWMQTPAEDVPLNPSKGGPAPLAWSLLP
Sequence of HIPK2 (human) (Q9H2X6 whole entry, looked up): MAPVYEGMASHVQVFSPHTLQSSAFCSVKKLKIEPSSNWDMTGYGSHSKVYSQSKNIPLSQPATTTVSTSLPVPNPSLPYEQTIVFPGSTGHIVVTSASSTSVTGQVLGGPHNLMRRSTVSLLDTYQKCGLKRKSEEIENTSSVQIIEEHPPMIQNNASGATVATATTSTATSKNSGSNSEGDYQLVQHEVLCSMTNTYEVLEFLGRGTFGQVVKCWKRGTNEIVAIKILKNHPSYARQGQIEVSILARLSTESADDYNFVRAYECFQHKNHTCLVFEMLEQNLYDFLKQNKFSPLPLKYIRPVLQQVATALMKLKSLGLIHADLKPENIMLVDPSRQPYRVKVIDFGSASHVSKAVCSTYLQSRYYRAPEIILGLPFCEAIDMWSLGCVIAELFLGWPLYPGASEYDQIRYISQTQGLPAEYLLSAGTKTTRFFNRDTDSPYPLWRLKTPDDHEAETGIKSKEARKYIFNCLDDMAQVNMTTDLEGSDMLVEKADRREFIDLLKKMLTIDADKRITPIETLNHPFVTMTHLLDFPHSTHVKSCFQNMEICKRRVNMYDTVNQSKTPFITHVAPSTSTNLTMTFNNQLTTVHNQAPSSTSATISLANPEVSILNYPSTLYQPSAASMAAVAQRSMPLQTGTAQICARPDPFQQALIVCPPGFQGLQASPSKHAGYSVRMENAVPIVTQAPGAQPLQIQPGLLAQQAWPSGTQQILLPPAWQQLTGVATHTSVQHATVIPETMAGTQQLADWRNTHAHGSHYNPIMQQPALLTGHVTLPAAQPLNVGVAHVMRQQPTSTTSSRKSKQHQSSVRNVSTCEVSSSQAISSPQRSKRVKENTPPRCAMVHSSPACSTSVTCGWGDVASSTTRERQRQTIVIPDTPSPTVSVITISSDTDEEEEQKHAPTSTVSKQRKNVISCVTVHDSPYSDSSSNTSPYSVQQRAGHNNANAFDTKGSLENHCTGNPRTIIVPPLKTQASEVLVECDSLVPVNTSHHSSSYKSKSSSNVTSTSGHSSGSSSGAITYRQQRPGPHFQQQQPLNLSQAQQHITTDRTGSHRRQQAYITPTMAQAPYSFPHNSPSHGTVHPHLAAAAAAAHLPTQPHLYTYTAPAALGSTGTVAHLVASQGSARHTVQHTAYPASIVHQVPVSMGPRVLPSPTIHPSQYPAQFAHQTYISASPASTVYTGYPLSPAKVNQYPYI
Sequence of HIPK1 (human) (Q86Z02 whole entry, looked up): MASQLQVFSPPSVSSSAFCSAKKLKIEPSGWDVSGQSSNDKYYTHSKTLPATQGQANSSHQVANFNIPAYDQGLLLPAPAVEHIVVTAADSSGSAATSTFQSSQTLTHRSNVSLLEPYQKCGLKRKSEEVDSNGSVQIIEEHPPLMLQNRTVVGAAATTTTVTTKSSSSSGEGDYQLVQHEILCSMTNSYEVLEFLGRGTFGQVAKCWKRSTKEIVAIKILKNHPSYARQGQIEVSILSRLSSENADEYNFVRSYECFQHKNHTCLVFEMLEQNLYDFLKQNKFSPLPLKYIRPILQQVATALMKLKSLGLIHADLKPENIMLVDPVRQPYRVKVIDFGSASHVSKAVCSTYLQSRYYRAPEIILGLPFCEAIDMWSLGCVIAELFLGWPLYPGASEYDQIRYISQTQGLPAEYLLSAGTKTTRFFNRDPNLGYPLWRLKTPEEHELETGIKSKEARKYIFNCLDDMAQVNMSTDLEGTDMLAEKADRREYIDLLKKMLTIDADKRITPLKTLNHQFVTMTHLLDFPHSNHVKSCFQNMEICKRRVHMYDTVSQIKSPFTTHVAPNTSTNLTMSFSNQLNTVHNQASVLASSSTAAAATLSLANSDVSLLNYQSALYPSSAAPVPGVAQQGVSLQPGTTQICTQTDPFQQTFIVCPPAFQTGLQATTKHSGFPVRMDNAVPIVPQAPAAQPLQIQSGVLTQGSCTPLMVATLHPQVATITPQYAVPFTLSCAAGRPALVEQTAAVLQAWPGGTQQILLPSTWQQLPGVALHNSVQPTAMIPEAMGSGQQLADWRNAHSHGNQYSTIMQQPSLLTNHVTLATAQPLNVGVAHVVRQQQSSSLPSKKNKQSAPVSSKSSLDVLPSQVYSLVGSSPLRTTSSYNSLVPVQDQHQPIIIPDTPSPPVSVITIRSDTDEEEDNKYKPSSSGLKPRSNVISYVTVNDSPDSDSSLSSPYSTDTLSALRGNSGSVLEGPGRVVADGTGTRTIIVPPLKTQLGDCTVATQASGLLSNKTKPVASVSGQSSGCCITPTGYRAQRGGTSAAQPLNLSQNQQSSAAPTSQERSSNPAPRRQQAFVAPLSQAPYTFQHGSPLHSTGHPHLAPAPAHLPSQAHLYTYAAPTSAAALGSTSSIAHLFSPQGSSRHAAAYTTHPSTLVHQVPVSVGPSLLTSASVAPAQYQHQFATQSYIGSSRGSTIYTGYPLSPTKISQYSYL
Sequence of TTK (human) (P33981 whole entry, looked up): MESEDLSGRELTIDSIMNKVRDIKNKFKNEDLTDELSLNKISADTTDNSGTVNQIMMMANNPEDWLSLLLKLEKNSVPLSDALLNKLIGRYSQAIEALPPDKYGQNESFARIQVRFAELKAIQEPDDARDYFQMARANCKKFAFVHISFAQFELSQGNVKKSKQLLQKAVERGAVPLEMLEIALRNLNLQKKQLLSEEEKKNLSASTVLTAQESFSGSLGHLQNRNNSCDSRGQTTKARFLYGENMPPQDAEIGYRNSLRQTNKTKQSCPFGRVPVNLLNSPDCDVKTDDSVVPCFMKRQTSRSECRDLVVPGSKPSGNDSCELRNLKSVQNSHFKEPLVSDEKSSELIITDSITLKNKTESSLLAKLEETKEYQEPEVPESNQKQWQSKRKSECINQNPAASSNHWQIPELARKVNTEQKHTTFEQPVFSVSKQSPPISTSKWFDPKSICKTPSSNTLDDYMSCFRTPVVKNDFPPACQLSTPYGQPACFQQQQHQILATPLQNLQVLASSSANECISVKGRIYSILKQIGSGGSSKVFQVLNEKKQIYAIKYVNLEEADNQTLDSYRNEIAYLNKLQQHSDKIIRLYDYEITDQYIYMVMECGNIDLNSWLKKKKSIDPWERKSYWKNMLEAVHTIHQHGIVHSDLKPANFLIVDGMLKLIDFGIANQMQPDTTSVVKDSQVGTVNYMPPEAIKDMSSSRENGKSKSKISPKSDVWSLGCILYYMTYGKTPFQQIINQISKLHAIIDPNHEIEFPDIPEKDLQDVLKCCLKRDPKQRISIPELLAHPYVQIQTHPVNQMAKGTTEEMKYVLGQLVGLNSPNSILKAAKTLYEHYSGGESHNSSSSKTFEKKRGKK
Sequence of PIK3CA (human), P42336 [E545K] (P42336 whole entry E545K, looked up): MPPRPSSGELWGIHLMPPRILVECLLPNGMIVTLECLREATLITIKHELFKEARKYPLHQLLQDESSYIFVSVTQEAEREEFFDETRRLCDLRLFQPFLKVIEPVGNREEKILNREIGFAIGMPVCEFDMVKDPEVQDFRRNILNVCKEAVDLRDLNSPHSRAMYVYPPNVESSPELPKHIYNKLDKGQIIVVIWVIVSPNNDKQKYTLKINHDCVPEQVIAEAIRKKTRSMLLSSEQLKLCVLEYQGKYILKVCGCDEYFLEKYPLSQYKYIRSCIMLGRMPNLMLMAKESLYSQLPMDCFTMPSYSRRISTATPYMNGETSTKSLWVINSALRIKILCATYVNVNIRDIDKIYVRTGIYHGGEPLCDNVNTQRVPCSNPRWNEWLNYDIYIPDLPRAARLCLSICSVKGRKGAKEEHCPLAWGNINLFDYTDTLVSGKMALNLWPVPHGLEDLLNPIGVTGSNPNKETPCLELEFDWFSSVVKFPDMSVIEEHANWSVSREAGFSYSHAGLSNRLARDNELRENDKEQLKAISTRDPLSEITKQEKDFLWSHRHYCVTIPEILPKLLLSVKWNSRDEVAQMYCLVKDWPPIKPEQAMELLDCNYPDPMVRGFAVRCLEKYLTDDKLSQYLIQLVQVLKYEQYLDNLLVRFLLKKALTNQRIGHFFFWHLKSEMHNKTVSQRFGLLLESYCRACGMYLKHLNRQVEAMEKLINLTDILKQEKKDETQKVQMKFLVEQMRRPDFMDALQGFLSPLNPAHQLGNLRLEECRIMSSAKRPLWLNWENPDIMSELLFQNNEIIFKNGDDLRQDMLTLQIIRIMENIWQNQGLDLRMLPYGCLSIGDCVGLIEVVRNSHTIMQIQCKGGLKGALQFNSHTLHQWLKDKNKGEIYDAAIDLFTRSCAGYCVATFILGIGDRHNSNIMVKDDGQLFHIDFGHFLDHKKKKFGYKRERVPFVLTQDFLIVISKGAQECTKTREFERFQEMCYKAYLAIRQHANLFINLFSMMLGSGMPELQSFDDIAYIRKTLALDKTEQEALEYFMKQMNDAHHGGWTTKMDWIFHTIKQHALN
Sequence of PIM1 (human) (P11309 whole entry, looked up): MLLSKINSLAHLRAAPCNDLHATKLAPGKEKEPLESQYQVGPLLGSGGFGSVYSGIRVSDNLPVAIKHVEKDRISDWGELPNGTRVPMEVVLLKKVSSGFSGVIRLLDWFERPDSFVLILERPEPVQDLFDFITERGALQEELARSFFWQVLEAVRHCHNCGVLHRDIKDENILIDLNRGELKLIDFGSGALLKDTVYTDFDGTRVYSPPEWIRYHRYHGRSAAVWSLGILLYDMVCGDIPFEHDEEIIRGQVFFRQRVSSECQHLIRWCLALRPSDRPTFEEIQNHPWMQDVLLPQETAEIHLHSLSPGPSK

## O=C1NC(=O)/C(=C/c2c[nH]c(=O)c(-c3cncc4ccccc34)c2)S1
HIPK1 (human) [1]
  IC50: > 10000 nM
HIPK2 (human)
  IC50: > 10000 nM

## CCN1C(=O)CC(c2ccccc2)N(C2CCCC2)c2nc(Nc3ccc(C(=O)NC4CCN(C)CC4)cc3OC)ncc21 (stereo not drawn)
DCLK1 (human)
  kinase still bound, per cent of control: 23%
PLK1 (human)
  kinase still bound, per cent of control: 0.55%
CAMK2G (human)
  kinase still bound, per cent of control: 26%
MYLK (human)
  kinase still bound, per cent of control: 26%
MKNK2 (human)
  kinase still bound, per cent of control: 33%
CAMK2A (human)
  kinase still bound, per cent of control: 20%
CAMK2D (human)
  kinase still bound, per cent of control: 30%
STK33 (human)
  kinase still bound, per cent of control: 20%

## CCN1C(=O)CC(C(C)C)N(C2CCCC2)c2nc(Nc3ccc(C(=O)NC4CCN(C)CC4)cc3OC)ncc21 (stereo not drawn)
DCLK1 (human)
  kinase still bound, per cent of control: 0.9%
CAMK2G (human)
  kinase still bound, per cent of control: 16%
DCLK2 (human)
  kinase still bound, per cent of control: 1.6%
CAMK2A (human)
  kinase still bound, per cent of control: 9.3%
PTK2B (human)
  kinase still bound, per cent of control: 34%
CAMK2D (human)
  kinase still bound, per cent of control: 23%
STK33 (human)
  kinase still bound, per cent of control: 31%

## O=C1NC(=O)/C(=C/c2c[nH]c(=O)c(-c3ccc(N4CCNCC4)cc3)c2)S1
HIPK1 (human) [1]
  IC50: 52 nM
HIPK2 (human)
  IC50: 45 nM

## CS(=O)(=O)Nc1ccc(-c2ccc(C=C3C(=O)NC(=O)NC3=O)o2)cc1
CAMKK2 (human)
  kinase still bound, per cent of control: 34%
[2]
  kinase still bound, per cent of control: 20%

## O=C1NC(=O)/C(=C/c2c[nH]c(=O)c(-c3ccc(N4CCN(Cc5ccccc5)CC4)nc3)c2)S1
HIPK1 (human) [1]
  IC50: 392 nM
HIPK2 (human)
  IC50: 173 nM

## Nc1ccc(-c2cc(/C=C3\SC(=O)NC3=O)c[nH]c2=O)cn1
HIPK1 (human) [1]
  IC50: 500 nM
HIPK2 (human)
  IC50: 351 nM

## CCN1C(=O)CCN(C2CCCC2)c2nc(Nc3ccc(N4CCC(O)CC4)cn3)ncc21
PLK4 (human)
  kinase still bound, per cent of control: 24%
FLT3 (human)
  kinase still bound, per cent of control: 31%
KIT (human)
  kinase still bound, per cent of control: 33%
RPS6KA2 KD2 (human)
  kinase still bound, per cent of control: 32%
DCLK1 (human)
  kinase still bound, per cent of control: 8.2%
[3]
  kinase still bound, per cent of control: 31%
PLK1 (human)
  kinase still bound, per cent of control: 1.8%
[4]
  kinase still bound, per cent of control: 27%
GAK (human)
  kinase still bound, per cent of control: 16%
CLK2 (human)
  kinase still bound, per cent of control: 33%
DCLK2 (human)
  kinase still bound, per cent of control: 30%
PDGFRB (human)
  kinase still bound, per cent of control: 11%
TTK (human) [5]
  Kd: 582 nM
TTK (human) [5]; compound 10.0 µM
  kinase still bound, per cent of control: 2%
STK33 (human)
  kinase still bound, per cent of control: 23%
TTK (human) [6]
  IC50: 3450 nM

## N=C1NC(=O)/C(=C/c2c[nH]c(=O)c(-c3cccc(N)c3)c2)S1
HIPK1 (human) [1]
  IC50: 317 nM
HIPK2 (human)
  IC50: 163 nM

## CS(=O)(=O)Nc1ccc(-c2ccc(/C=C3\SC(=N)NC3=O)o2)c(O)c1
STK17B (human)
  kinase still bound, per cent of control: 7.7%
PIM2 (human) [7]
  kinase still bound, per cent of control: 0.45%
[2]
  kinase still bound, per cent of control: 32%
MINK1 (human)
  kinase still bound, per cent of control: 30%
STK17A (human)
  kinase still bound, per cent of control: 25%
MAPK15 (human)
  kinase still bound, per cent of control: 0.55%
CDK7 (human)
  kinase still bound, per cent of control: 0.9%
TGFBR2 (human)
  kinase still bound, per cent of control: 32%
HIPK1 (human) [8]
  kinase still bound, per cent of control: 22%
PIM3 (human)
  kinase still bound, per cent of control: 4.8%
RPS6KA4 KD2 (human)
  kinase still bound, per cent of control: 30%
PIM1 (human) [9]
  kinase still bound, per cent of control: 3.3%
PIK3CG (human)
  kinase still bound, per cent of control: 1.6%
CSNK2A2 (human)
  kinase still bound, per cent of control: 22%
PIM2 (human) [10]
  IC50: 1920 nM
PIM1 (human) [11]
  IC50: 768 nM

## Nc1cccc(-c2cc(/C=C3\NC(=O)NC3=O)c[nH]c2=O)c1
HIPK1 (human) [1]
  IC50: > 10000 nM
HIPK2 (human)
  IC50: > 10000 nM

## CC(=O)Nc1ccc(-c2ccc(/C=C3\SC(=N)NC3=O)o2)c(O)c1
STK17B (human)
  kinase still bound, per cent of control: 3%
TAOK1 (human)
  kinase still bound, per cent of control: 4%
TAOK3 (human)
  kinase still bound, per cent of control: 8.6%
CSNK2A1 (human)
  kinase still bound, per cent of control: 32%
PIM2 (human) [7]
  kinase still bound, per cent of control: 1.6%
[2]
  kinase still bound, per cent of control: 25%
MINK1 (human)
  kinase still bound, per cent of control: 33%
STK17A (human)
  kinase still bound, per cent of control: 0.7%
MAPK15 (human)
  kinase still bound, per cent of control: 0.4%
CDK7 (human)
  kinase still bound, per cent of control: 3.9%
TGFBR2 (human)
  kinase still bound, per cent of control: 13%
HIPK1 (human) [8]
  kinase still bound, per cent of control: 2.6%
PIM3 (human)
  kinase still bound, per cent of control: 2.2%
CLK2 (human)
  kinase still bound, per cent of control: 4.8%
DAPK2 (human)
  kinase still bound, per cent of control: 24%
RPS6KA4 KD2 (human)
  kinase still bound, per cent of control: 29%
DYRK1B (human)
  kinase still bound, per cent of control: 23%
CLK4 (human)
  kinase still bound, per cent of control: 13%
CLK1 (human)
  kinase still bound, per cent of control: 16%
CAMKK1 (human)
  kinase still bound, per cent of control: 30%
PIM1 (human) [9]
  kinase still bound, per cent of control: 1.6%
PIM2 (human) [10]
  IC50: 298 nM
PIM1 (human) [11]
  IC50: 959 nM

## Nc1cccc(-c2cc(/C=C3\SC(=S)NC3=O)c[nH]c2=O)c1
HIPK1 (human) [1]
  IC50: 100 nM
HIPK2 (human)
  IC50: 93 nM

## CS(=O)(=O)Nc1ccc(-c2cc(/C=C3\SC(=O)NC3=O)c[nH]c2=O)cc1
PIM2 (human) [10]
  IC50: 214 nM
HIPK1 (human) [1]
  IC50: 527 nM
HIPK2 (human)
  IC50: 258 nM
PIM1 (human) [11]
  IC50: 151 nM

## O=C1NC(=O)/C(=C/c2c[nH]c(=O)c(-c3ccc(N4CCNCC4)nc3)c2)N1
HIPK1 (human) [1]
  IC50: > 10000 nM
HIPK2 (human)
  IC50: > 10000 nM

## O=C1NC(=O)C(=Cc2ccc(-c3ccc(Cl)cc3)o2)C(=O)N1
MAP2K3 (human)
  kinase still bound, per cent of control: 15%
MAP2K4 (human)
  kinase still bound, per cent of control: 14%

## O=C1NC(=O)/C(=C/c2c[nH]c(=O)c(-c3ccc(N4CCC(N5CCCC5)CC4)nc3)c2)S1
HIPK1 (human) [1]
  IC50: 6530 nM
HIPK2 (human)
  IC50: 4900 nM

## O=C1NC(=O)/C(=C/c2c[nH]c(=O)c(-c3cnc4ccccc4c3)c2)S1
HIPK1 (human) [1]
  IC50: 228 nM
HIPK2 (human)
  IC50: 178 nM
